The test system of data set [1] is CCRF-CEM. The data set is described as follows: Compound was evaluated for anti-HIV activity against thymidine kinase deficient CEM cell line infected with HIV-1. The format is functional, cell-based. The conditions noted are these: Homo sapiens.
Data set [2] relates to CCRF-CEM. Briefly: Compound was evaluated for cytotoxicity against thymidine kinase deficient CEM cell line infected with HIV-1. The conditions noted are these: Homo sapiens. The format is functional.
The nature of data set [3]: Half-life at initial concentration of 5*10e-5 M in CEM cell extract. The format is ADME, CCRF-CEM. The conditions noted are these: human.

This note sets out measurements from ChEMBL document CHEMBL1130803, “Anti-HIV pronucleotides: decomposition pathways and correlation with biological activities” (Bioorg Med Chem Lett, 1998).

Structures are written as SMILES. A value given as a limit tells only on which side of the number the result lay.

As for `COC(=O)[C@H](C)NP(=O)(OC[C@H]1O[C@@H](n2cc(C)c(=O)[nH]c2=O)C[C@@H]1N=[N+]=[N-])Oc1ccccc1` (some centres undefined), a half-maximal response in the data set with CCRF-CEM [1] (EC50) required 4.1 µM. Also, the CC50 (commonly the concentration giving 50% cytotoxicity) in the data set on CCRF-CEM [2] was 97 µM. In addition, in data set [3], the half-life (usually the time needed for the level to fall by half in the phase considered) was 2.5 h.
For `COC(=O)CCNP(=O)(OCC1OC(n2cc(C)c(=O)[nH]c2=O)CC1N=[N+]=[N-])Oc1ccccc1` (centres undefined), in that order: greater than 100 µM, greater than 100 µM and greater than 8 h.
The like results for `CC(=O)OCCNP(=O)(OCC1OC(n2cc(C)c(=O)[nH]c2=O)CC1N=[N+]=[N-])Oc1ccccc1` (centres undefined) were, in that order, greater than 10 µM, greater than 10 µM and 1.5 h.
Turning to `COC(=O)CNP(=O)(OCC1OC(n2cc(C)c(=O)[nH]c2=O)CC1N=[N+]=[N-])Oc1ccccc1` (centres undefined), in the data set on CCRF-CEM [1], a half-maximal effect (EC50) was put at 63 µM. This molecule also registered a CC50 with CCRF-CEM [2] greater than 100 µM. For the same molecule, the half-life in data set [3] is 21 h.
Turning to `Cc1cn([C@H]2C[C@H](N=[N+]=[N-])[C@@H](CO)O2)c(=O)[nH]c1=O` [ZIDOVUDINE], in the data set on CCRF-CEM [1], the EC50 (usually the concentration giving half of the maximal effect) was greater than 100 µM. Moreover, in the data set with CCRF-CEM [2], the cytotoxic concentration (CC50) was greater than 100 µM.
